3 molecules from patent US20220323548A1 (priority 2019, published 2022) can be followed below.

A word on the Tmax: it is the time from dosing to the highest level. Broadly, the half-life is the time in which the quantity being followed falls by half. A lower half-life goes with rapid decline.

In data set [1] the target is human GLP-1R (Homo sapiens, UniProt P43220). Description: GLP-1 receptor luciferase reporter assay (part II, dimer analogs). Conditions: CV-1 cells transfected with human GLP-1R and CRE, Table 8. Background: In a reporter assay the amount or activity of a reporter protein is the signal.
Experimental: Specifically, the fibroblast cell line CV-1 (1×10^4 cells/ml, Korea Cell Line Bank) was cultured on a 96-well white cell culture plate for 24 hours, and then human GLP-1R (pcDNA3.1_hGLP-1R) and cAMP response element (CRE, pcDNA3.1_hCRE) were added to perform transfection. After 24 hours, the medium was exchanged with a serum-free medium, followed by culture for 16 hours, and then each analog was treated for 6 hours. The expression level of luciferase, a reporter gene, by activated GLP-1R, was quantified by a luminometer, and the results are shown in Table 8.
A further data set relates to rat islets. Description: Glucose-dependent insulin secretion from rat islets, rat insulin ELISA (part II). Type of data set: cell-based. The settings on record: 28 mM glucose, Table 9.
The next data set deals with C57BKS/J dbdb mice. The data set is described as follows: Anti-diabetic (blood glucose lowering) effect in Type 2 diabetes mouse models. Conditions: 20 nmole/kg s.c., 0-48 hours.
Data set [2] is described as follows: Pharmacokinetics after subcutaneous administration, Exendin-4 EIA (part II). Conditions: mouse, in vivo, sc.
Data set [3] deals with T1, human GLP-1R (human, UniProt P43220 24-463). The data set is described as follows: cell-based or functional assay.
For data set [4], the target named is T1, human GLP-1R. Description: cell-based or functional assay. This is another data set of the same source.

Positions of bridges follow the written chain, without caps; N, C: chain ends. Chains are numbered I, II in the order given. No end group written: not given here. *: point of attachment. X1 = CC(=O)N[C@@H]1[C@@H](O)[C@H](O[C@@H]2O[C@H](CO)[C@@H](O[C@@H]3O[C@H](CO[C@H]4O[C@H](CO)[C@@H](O)[C@H](O)[C@@H]4O[C@@H]4O[C@H](CO)[C@@H](O[C@@H]5O[C@H](CO[C@]6(C(=O)OCc7ccccc7)C[C@H](O)[C@@H](NC(C)=O)[C@H]([C@H](O)[C@H](O)CO)O6)[C@H](O)[C@H](O)[C@H]5O)[C@H](O)[C@H]4NC(C)=O)[C@@H](O)[C@H](O[C@H]4O[C@H](CO)[C@@H](O)[C@H](O)[C@@H]4O[C@@H]4O[C@H](CO)[C@@H](O[C@@H]5O[C@H](CO[C@]6(C(=O)OCc7ccccc7)C[C@H](O)[C@@H](NC(C)=O)[C@H]([C@H](O)[C@H](O)CO)O6)[C@H](O)[C@H](O)[C@H]5O)[C@H](O)[C@H]4NC(C)=O)[C@@H]3O)[C@H](O)[C@H]2NC(C)=O)[C@@H](CO)O[C@H]1NC(=O)C*; undeca‑saccharide = not defined here; Decanoyl = CCCCCCCCCC(=O)*

Sequence of human GLP-1R (Homo sapiens, UniProt P43220) (P43220 24-463): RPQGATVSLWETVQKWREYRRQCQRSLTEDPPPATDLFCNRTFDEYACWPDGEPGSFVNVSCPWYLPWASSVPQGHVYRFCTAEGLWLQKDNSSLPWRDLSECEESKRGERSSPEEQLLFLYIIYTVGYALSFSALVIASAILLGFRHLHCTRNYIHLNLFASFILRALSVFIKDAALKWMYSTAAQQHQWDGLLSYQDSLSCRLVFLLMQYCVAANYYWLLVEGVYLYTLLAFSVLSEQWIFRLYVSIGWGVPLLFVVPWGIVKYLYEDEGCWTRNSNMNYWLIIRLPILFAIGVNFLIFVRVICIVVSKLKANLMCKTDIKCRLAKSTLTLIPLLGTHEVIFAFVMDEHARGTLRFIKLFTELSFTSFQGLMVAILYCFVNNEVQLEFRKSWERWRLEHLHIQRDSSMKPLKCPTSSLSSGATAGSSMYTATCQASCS
Text for rat islets: The pancreas of 8-week-old SD rats (Damul Science) was extracted, and islets were isolated.

Take `CCCCCCCCCC(=O)NCCCC[C@H](NC(=O)[C@H](CO)NC(=O)[C@@H]1CCCN1C(=O)CNC(=O)CNC(=O)[C@H](CC(N)=O)NC(=O)[C@H](CCCCN)NC(=O)[C@H](CC(C)C)NC(=O)[C@H](Cc1c[nH]c2ccccc12)NC(=O)[C@H](CSCC(=O)N[C@@H]1O[C@H](CO)[C@@H](O[C@@H]2O[C@H](CO)[C@@H](O[C@@H]3O[C@H](CO[C@H]4O[C@H](CO)[C@@H](O)[C@H](O)[C@@H]4O[C@@H]4O[C@H](CO)[C@@H](O[C@@H]5O[C@H](CO[C@]6(C(=O)OCc7ccccc7)C[C@H](O)[C@@H](NC(C)=O)[C@H]([C@H](O)[C@H](O)CO)O6)[C@H](O)[C@H](O)[C@H]5O)[C@H](O)[C@H]4NC(C)=O)[C@@H](O)[C@H](O[C@H]4O[C@H](CO)[C@@H](O)[C@H](O)[C@@H]4O[C@@H]4O[C@H](CO)[C@@H](O[C@@H]5O[C@H](CO[C@]6(C(=O)OCc7ccccc7)C[C@H](O)[C@@H](NC(C)=O)[C@H]([C@H](O)[C@H](O)CO)O6)[C@H](O)[C@H](O)[C@H]5O)[C@H](O)[C@H]4NC(C)=O)[C@@H]3O)[C@H](O)[C@H]2NC(C)=O)[C@H](O)[C@H]1NC(C)=O)NC(=O)[C@@H](NC(=O)[C@H](Cc1ccccc1)NC(=O)[C@H](CC(C)C)NC(=O)[C@H](CCCNC(=N)N)NC(=O)[C@@H](NC(=O)[C@H](C)NC(=O)[C@H](CSSC[C@H](NC(=O)[C@H](CCC(=O)O)NC(=O)[C@H](CCC(=O)O)NC(=O)[C@H](CCSC)NC(=O)[C@H](CCC(N)=O)NC(=O)[C@H](CCCCN)NC(=O)[C@H](CO)NC(=O)[C@H](CC(C)C)NC(=O)[C@H](CC(=O)O)NC(=O)[C@H](CO)NC(=O)[C@@H](NC(=O)[C@H](Cc1ccccc1)NC(=O)[C@@H](NC(=O)CNC(=O)[C@H](CCC(=O)O)NC(=O)CNC(=O)[C@@H](N)Cc1c[nH]cn1)[C@@H](C)O)[C@@H](C)O)C(=O)N[C@@H](C)C(=O)N[C@H](C(=O)N[C@@H](CCCNC(=N)N)C(=O)N[C@@H](CC(C)C)C(=O)N[C@@H](Cc1ccccc1)C(=O)N[C@H](C(=O)N[C@@H](CSCC(=O)N[C@@H]1O[C@H](CO)[C@@H](O[C@@H]2O[C@H](CO)[C@@H](O[C@@H]3O[C@H](CO[C@H]4O[C@H](CO)[C@@H](O)[C@H](O)[C@@H]4O[C@@H]4O[C@H](CO)[C@@H](O[C@@H]5O[C@H](CO[C@]6(C(=O)OCc7ccccc7)C[C@H](O)[C@@H](NC(C)=O)[C@H]([C@H](O)[C@H](O)CO)O6)[C@H](O)[C@H](O)[C@H]5O)[C@H](O)[C@H]4NC(C)=O)[C@@H](O)[C@H](O[C@H]4O[C@H](CO)[C@@H](O)[C@H](O)[C@@H]4O[C@@H]4O[C@H](CO)[C@@H](O[C@@H]5O[C@H](CO[C@]6(C(=O)OCc7ccccc7)C[C@H](O)[C@@H](NC(C)=O)[C@H]([C@H](O)[C@H](O)CO)O6)[C@H](O)[C@H](O)[C@H]5O)[C@H](O)[C@H]4NC(C)=O)[C@@H]3O)[C@H](O)[C@H]2NC(C)=O)[C@H](O)[C@H]1NC(C)=O)C(=O)N[C@@H](Cc1c[nH]c2ccccc12)C(=O)N[C@@H](CC(C)C)C(=O)N[C@@H](CCCCN)C(=O)N[C@@H](CC(N)=O)C(=O)NCC(=O)NCC(=O)N1CCC[C@H]1C(=O)N[C@@H](CO)C(=O)N[C@@H](CCCCNC(=O)CCCCCCCCC)C(=O)O)[C@@H](C)CC)C(C)C)NC(=O)[C@H](CCC(=O)O)NC(=O)[C@H](CCC(=O)O)NC(=O)[C@H](CCSC)NC(=O)[C@H](CCC(N)=O)NC(=O)[C@H](CCCCN)NC(=O)[C@H](CO)NC(=O)[C@H](CC(C)C)NC(=O)[C@H](CC(=O)O)NC(=O)[C@H](CO)NC(=O)[C@@H](NC(=O)[C@H](Cc1ccccc1)NC(=O)[C@@H](NC(=O)CNC(=O)[C@H](CCC(=O)O)NC(=O)CNC(=O)[C@@H](N)Cc1c[nH]cn1)[C@@H](C)O)[C@@H](C)O)C(C)C)[C@@H](C)CC)C(=O)O` [AGM-212-1, AGM-212(E17C & E24C-11 sugar)-S-S-AGM-212(E17C & E24C-11 sugar)]: the “Emax (fold induction over basal)” value on human GLP-1R [1] was found to be 10.1 ± 1.2 fold induction over basal. Also, the entries for the “Insulin secretion from rat islets” value with rat islets (10 nM analog) and with rat islets (100 nM analog) were 14506.04 ± 3493.9 pg/mL and 20080 ± 8384.9 pg/mL, respectively. Besides, in the data set with C57BKS/J dbdb mice, the “anti-diabetic effect (blood glucose lowering)” value was “reduced anti-diabetic effect”.
Consider “I: H-HGEGTFTSDLSKQMEECAVRLFIEWLKC(X1)GGPSK(Decanoyl)-OH / II: H-HGEGTFTSDLSKQMEECAVRLFIEWLKC(X1)GGPSK(Decanoyl)-OH (disulfide I:17-II:17) [AGM-212-2, AGM-212(E17C & N28C-11 sugar)-S-S-AGM-212(E17C & N28C-11 sugar)]”, for which the “Emax (fold induction over basal)” value at human GLP-1R [1] is given as 10.2 ± 1.3 fold induction over basal. Besides, in data set [2], the time of peak concentration (Tmax) is 2 h and the half-life was 4.85 h. Moreover, in the data set on rat islets (10 nM analog), the “Insulin secretion from rat islets” value is 14446.79 ± 654.34 pg/mL. In addition, the “Insulin secretion from rat islets” value with rat islets (100 nM analog) came to 24954.72 ± 2741.89 pg/mL. The “anti-diabetic effect (blood glucose lowering)” value with C57BKS/J dbdb mice was “increased degree of blood glucose lowering compared with Ex4 and AGM-212”.
On to HGEGTFTSDLSKQMEECAVRLFIEWLKC(undeca‑saccharide)GGPSK(Decanoyl) (reading uncertain; also: homodimer via Cys17–Cys17 disulfide) [AGM-212-2], for which the “Emax (fold induction over basal), CRE-luciferase reporter” value in the data set with human GLP-1R [3] was 10.2 fold induction over basal. For the same molecule, the “fold change of EC50 level compared with Ex4 (luciferase reporter)” value with human GLP-1R [4] was at least 6 fold.
